One test has as its target MNK1a (Homo sapiens (Human), UniProt Q9BUB5). In words: MNK1 in vitro kinase assay (Assay 3), Z'-LYTE. The test is classed as biochemical.
Conditions: not given
Sequence of MNK1a (Q9BUB5 other isoform, or with tags, fused parts or gaps): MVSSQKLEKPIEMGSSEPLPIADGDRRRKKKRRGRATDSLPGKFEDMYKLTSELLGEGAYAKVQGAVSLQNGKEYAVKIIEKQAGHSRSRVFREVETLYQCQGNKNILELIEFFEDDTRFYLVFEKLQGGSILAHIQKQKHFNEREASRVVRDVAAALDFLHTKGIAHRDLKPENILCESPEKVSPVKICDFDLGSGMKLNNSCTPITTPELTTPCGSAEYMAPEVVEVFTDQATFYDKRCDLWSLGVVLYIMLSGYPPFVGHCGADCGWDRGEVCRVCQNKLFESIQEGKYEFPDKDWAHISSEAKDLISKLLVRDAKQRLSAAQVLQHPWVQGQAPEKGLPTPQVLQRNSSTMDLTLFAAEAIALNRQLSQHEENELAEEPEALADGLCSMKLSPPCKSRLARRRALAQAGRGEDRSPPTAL
Sequence of MNK2a (Q9HBH9 whole entry): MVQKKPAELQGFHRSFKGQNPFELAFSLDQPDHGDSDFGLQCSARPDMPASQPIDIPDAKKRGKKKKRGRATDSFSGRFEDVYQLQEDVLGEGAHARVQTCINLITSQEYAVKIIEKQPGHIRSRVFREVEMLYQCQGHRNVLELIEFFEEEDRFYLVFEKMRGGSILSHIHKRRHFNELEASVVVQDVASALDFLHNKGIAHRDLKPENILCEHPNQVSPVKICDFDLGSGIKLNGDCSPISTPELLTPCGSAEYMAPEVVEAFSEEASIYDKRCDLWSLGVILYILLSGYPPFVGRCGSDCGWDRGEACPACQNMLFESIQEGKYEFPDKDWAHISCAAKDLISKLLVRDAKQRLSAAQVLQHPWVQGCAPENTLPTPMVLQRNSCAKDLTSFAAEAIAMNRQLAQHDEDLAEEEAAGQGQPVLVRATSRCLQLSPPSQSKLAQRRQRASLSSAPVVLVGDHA
One may read the IC50 as the midpoint of a concentration-inhibition curve. `Cc1cc(N=S2(=O)CCCC2)cc2ncnc(Nc3ccc(Cl)nc3O[C@H]3COC[C@@H]3O)c12` [Example 2.42] yielded an IC50 of 39 nM.
`Cc1cc(N=S2(=O)CCCC2)cc2ncnc(Nc3ccc(Cl)nc3O[C@@H]3COC[C@H]3O)c12` [Example 2.54] returned an IC50 of 66 nM.
On the same count and under the same terms, next, `Cc1cc(N=S2(=O)CCCC2)cc2ncnc(Nc3ccc(F)cc3O[C@H]3CN(S(C)(=O)=O)C[C@@H]3O)c12` [Example 2.60]: 37 nM; `Cc1cc(N=S(C)(=O)c2ccccc2)cc2ncnc(Nc3ccc(F)cc3O[C@H]3COC[C@@H]3O)c12` (stereo partly drawn) [Example 2.75]: 95 nM.
The same measure, in the same setting: to `Cc1cc(N=S(C)(=O)C2CCOCC2)cc2ncnc(Nc3ccc(F)cc3O[C@H]3COC[C@@H]3O)c12` (stereo partly drawn) [Example 2.78] belongs 107 nM; to `O=S1(=Nc2cc(F)c3c(Nc4ccc(F)cc4O[C@H]4COC[C@@H]4O)ncnc3c2)CCC1` [Example 2.92], 44 nM; to `Cc1cc(N=S2(=O)CCCC2)cc2ncnc(Nc3ccc(F)cc3O[C@@H]3CNC[C@H]3O)c12` [Example 3.5], 97 nM.
In the case of `CO[C@@H]1CN(CC(F)F)C[C@H]1Oc1cc(F)ccc1Nc1ncnc2cc(N=S3(=O)CCCC3)cc(C)c12` [Example 5.1], the IC50 worked out at 373 nM.

The same test, now with this note: compound concentration of 1 μM, read-out: MNK1 % INH.
As to `Cc1cc(N=S2(=O)CCC2)cc2ncnc(Nc3ccc(Cl)nc3O[C@H]3COC[C@@H]3O)c12` [Example 2.43], the inhibition at 1 µM was 100%.
Same read-out and setting: to `Cc1cc(N=S(C)(C)=O)cc2ncnc(Nc3ccc(Cl)nc3O[C@@H]3COC[C@H]3O)c12` [Example 2.48] belongs 90%.
Take `Cc1cc(N=S(C)(C)=O)cc2ncnc(Nc3cccnc3O[C@@H]3COC[C@H]3O)c12` [Example 2.51]: the inhibition at 1 µM came out at 81%.
Consider `Cc1cc(N=S2(=O)CCC2)cc2ncnc(Nc3ccc(Cl)nc3O[C@@H]3COC[C@H]3O)c12` [Example 2.53], for which the inhibition at 1 µM turned out to be 83%.
For the compound `CS(C)(=O)=Nc1cc(F)c2c(Nc3ccc(F)cc3O[C@H]3COC[C@@H]3O)ncnc2c1` [Example 2.55], the inhibition at 1 µM worked out at 91%.
In the case of `Cc1cc(N=S(C)(C)=O)cc2ncnc(Nc3ccc(F)cc3O[C@H]3CN(S(C)(=O)=O)C[C@@H]3O)c12` [Example 2.59], the inhibition at 1 µM came out at 99%.
On to `Cc1cc(N=S(C)(C)=O)cc2ncnc(Nc3ccc(F)cc3O[C@H]3CN(C)C[C@@H]3O)c12` [Example 2.62], for which the inhibition at 1 µM was 78%.
The same measure, in the same setting: next, `Cc1cc(N=[S@@](C)(=O)c2ccccc2)cc2ncnc(Nc3ccc(F)cc3O[C@@H]3COC[C@@H]3O)c12` [Example 2.64]: 88%.
Consider `Cc1cc(N=S(C)(=O)C(C)C)cc2ncnc(Nc3ccc(F)cc3O[C@H]3COC[C@@H]3O)c12` (stereo partly drawn) [Example 2.74], for which the inhibition at 1 µM came out at 91%.
Take `Cc1cc(N=S(C)(=O)C(C)(C)C)cc2ncnc(Nc3ccc(F)cc3O[C@H]3COC[C@@H]3O)c12` (stereo partly drawn) [Example 2.79]: the inhibition at 1 µM stood at 85%.
Same read-out and setting: next, `CC1CCS(=O)(=Nc2cc(F)c3c(Nc4ccc(F)cc4O[C@H]4COC[C@@H]4O)ncnc3c2)C1` (stereo partly drawn) [Example 2.80]: 96%; `Cc1cc(N=S(C)(=O)c2cccnc2)cc2ncnc(Nc3ccc(F)cc3O[C@H]3COC[C@@H]3O)c12` (stereo partly drawn) [Example 2.81]: 91%.
As to `Cc1cc(N=S2(=O)CCC(C)C2)cc2ncnc(Nc3ccc(F)cc3O[C@H]3COC[C@@H]3O)c12` (stereo partly drawn) [Example 2.85], the inhibition at 1 µM is 97%.
Regarding `O=S1(=Nc2cc(F)c3c(Nc4ccc(F)cc4O[C@H]4COC[C@@H]4O)ncnc3c2)CCC1` [Example 2.92], the inhibition at 1 µM turned out to be 99%.
On the same count and under the same terms, next, `CC(=O)N1C[C@@H](O)[C@H](Oc2cc(F)ccc2Nc2ncnc3cc(N=S(C)(C)=O)cc(C)c23)C1` [Example 2.102]: 74%; `Cc1cc(N=S2(=O)CCCC2)cc2ncnc(Nc3cccnc3O[C@@H]3CNC[C@H]3O)c12` [Example 3.1]: 93%; `Cc1cc(N=S(C)(C)=O)cc2ncnc(Nc3cccnc3O[C@@H]3CNC[C@H]3O)c12` [Example 3.2]: 66%.
On to `Cc1cc(N=S2(=O)CCCC2)cc2ncnc(Nc3cccnc3O[C@H]3CNC[C@@H]3O)c12` [Example 3.3], for which the inhibition at 1 µM came out at 88%.
As for `Cc1cc(N=S(C)(C)=O)cc2ncnc(Nc3ccc(F)cc3O[C@@H]3CNC[C@H]3O)c12` [Example 3.4], the inhibition at 1 µM stood at 82%.
The same measure, in the same setting: next, `Cc1cc(N=S(C)(C)=O)cc2ncnc(Nc3ccc(F)cc3O[C@H]3CNC[C@@H]3O)c12` [Example 3.7]: 84%.
In the case of `CO[C@@H]1CNC[C@H]1Oc1cc(F)ccc1Nc1ncnc2cc(N=S(C)(C)=O)cc(C)c12` [Example 4.1], the inhibition at 1 µM was 64%.
Same read-out and setting: to `CO[C@@H]1CNC[C@H]1Oc1cc(F)ccc1Nc1ncnc2cc(N=S3(=O)CCCC3)cc(C)c12` [Example 4.2] belongs 87%; to `CCN1C[C@@H](OC)[C@H](Oc2cc(F)ccc2Nc2ncnc3cc(N=S4(=O)CCCC4)cc(C)c23)C1` [Example 4.3], 54%.
Still for that read-out and setting: to `CO[C@@H]1CNC[C@H]1Oc1ncccc1Nc1ncnc2cc(N=S3(=O)CCCC3)cc(C)c12` [Example 4.4] belongs 93%.
The same measure, in the same setting: next, `CO[C@@H]1CNC[C@H]1Oc1ncccc1Nc1ncnc2cc(N=S(C)(C)=O)cc(C)c12` [Example 4.5]: 63%.
Take `CO[C@@H]1CN(CC(F)F)C[C@H]1Oc1ncccc1Nc1ncnc2cc(N=S(C)(C)=O)cc(C)c12` [Example 5.2]: the inhibition at 1 µM amounted to 56%.
Still for that read-out and setting: to `CO[C@@H]1CN(CCF)C[C@H]1Oc1ncccc1Nc1ncnc2cc(N=S(C)(C)=O)cc(C)c12` [Example 5.3] belongs 31%.
Still for that read-out and setting: to `CO[C@@H]1CN(CC(F)F)C[C@H]1Oc1cc(F)ccc1Nc1ncnc2cc(N=S(C)(C)=O)cc(C)c12` [Example 5.4] belongs 35%.
As for `CO[C@@H]1CN(CC(F)F)C[C@H]1Oc1ncccc1Nc1ncnc2cc(N=S3(=O)CCCC3)cc(C)c12` [Example 5.5], the inhibition at 1 µM is 85%.
For `CO[C@@H]1CN(C(C)=O)C[C@H]1Oc1cc(F)ccc1Nc1ncnc2cc(N=S(C)(C)=O)cc(C)c12` [Example 6.1], the inhibition at 1 µM turned out to be 10%.

The target of a further test is MNK2a (Homo sapiens (Human), UniProt Q9HBH9). In words: MNK2a in vitro kinase assay (Assay 2), ADP-Glo. The class given is biochemical. As to conditions: assay 2; read-out: MNK2 IC50. An excerpt:
B. MNK2a In Vitro Kinase Assay (Assay 2)
In general terms: ADP-Glo first removes unused ATP, then detects ADP through luciferase.
As for `Cc1cc(N=S2(=O)CCCC2)cc2ncnc(Nc3ccc(Cl)nc3O[C@H]3COC[C@@H]3O)c12` [Example 2.42], the IC50 is 4 nM.
Same read-out and setting: to `Cc1cc(N=S2(=O)CCC2)cc2ncnc(Nc3ccc(Cl)nc3O[C@H]3COC[C@@H]3O)c12` [Example 2.43] belongs 3 nM.
The same measure, in the same setting: to `Cc1cc(N=S(C)(C)=O)cc2ncnc(Nc3ccc(Cl)nc3O[C@@H]3COC[C@H]3O)c12` [Example 2.48] belongs 7 nM; to `Cc1cc(N=S(C)(C)=O)cc2ncnc(Nc3cccnc3O[C@@H]3COC[C@H]3O)c12` [Example 2.51], 11 nM; to `Cc1cc(N=S2(=O)CCC2)cc2ncnc(Nc3ccc(Cl)nc3O[C@@H]3COC[C@H]3O)c12` [Example 2.53], 4 nM.
On to `Cc1cc(N=S2(=O)CCCC2)cc2ncnc(Nc3ccc(Cl)nc3O[C@@H]3COC[C@H]3O)c12` [Example 2.54], for which the IC50 worked out at 3 nM.
Same read-out and setting: next, `CS(C)(=O)=Nc1cc(F)c2c(Nc3ccc(F)cc3O[C@H]3COC[C@@H]3O)ncnc2c1` [Example 2.55]: 3 nM; `Cc1cc(N=S(C)(C)=O)cc2ncnc(Nc3ccc(F)cc3O[C@H]3CN(S(C)(=O)=O)C[C@@H]3O)c12` [Example 2.59]: 4 nM.
Regarding `Cc1cc(N=S2(=O)CCCC2)cc2ncnc(Nc3ccc(F)cc3O[C@H]3CN(S(C)(=O)=O)C[C@@H]3O)c12` [Example 2.60], the IC50 came out at 3 nM.
On the same count and under the same terms, to `Cc1cc(N=S(C)(C)=O)cc2ncnc(Nc3ccc(F)cc3O[C@H]3CN(C)C[C@@H]3O)c12` [Example 2.62] belongs 33 nM.
Still for that read-out and setting: next, `Cc1cc(N=[S@@](C)(=O)c2ccccc2)cc2ncnc(Nc3ccc(F)cc3O[C@@H]3COC[C@@H]3O)c12` [Example 2.64]: 9 nM; `Cc1cc(N=S(C)(=O)C(C)C)cc2ncnc(Nc3ccc(F)cc3O[C@H]3COC[C@@H]3O)c12` (stereo partly drawn) [Example 2.74]: 7 nM; `Cc1cc(N=S(C)(=O)c2ccccc2)cc2ncnc(Nc3ccc(F)cc3O[C@H]3COC[C@@H]3O)c12` (stereo partly drawn) [Example 2.75]: 8 nM.
Consider `Cc1cc(N=S(C)(=O)C2CCOCC2)cc2ncnc(Nc3ccc(F)cc3O[C@H]3COC[C@@H]3O)c12` (stereo partly drawn) [Example 2.78], for which the IC50 is 11 nM.
Still for that read-out and setting: to `Cc1cc(N=S(C)(=O)C(C)(C)C)cc2ncnc(Nc3ccc(F)cc3O[C@H]3COC[C@@H]3O)c12` (stereo partly drawn) [Example 2.79] belongs 10 nM; to `CC1CCS(=O)(=Nc2cc(F)c3c(Nc4ccc(F)cc4O[C@H]4COC[C@@H]4O)ncnc3c2)C1` (stereo partly drawn) [Example 2.80], 4 nM.
Consider `Cc1cc(N=S(C)(=O)c2cccnc2)cc2ncnc(Nc3ccc(F)cc3O[C@H]3COC[C@@H]3O)c12` (stereo partly drawn) [Example 2.81], for which the IC50 came out at 14 nM.
Take `Cc1cc(N=S2(=O)CCC(C)C2)cc2ncnc(Nc3ccc(F)cc3O[C@H]3COC[C@@H]3O)c12` (stereo partly drawn) [Example 2.85]: the IC50 amounted to 3 nM.
As to `O=S1(=Nc2cc(F)c3c(Nc4ccc(F)cc4O[C@H]4COC[C@@H]4O)ncnc3c2)CCC1` [Example 2.92], the IC50 was 2 nM.
As for `CC(=O)N1C[C@@H](O)[C@H](Oc2cc(F)ccc2Nc2ncnc3cc(N=S(C)(C)=O)cc(C)c23)C1` [Example 2.102], the IC50 came out at 31 nM.
Still for that read-out and setting: next, `Cc1cc(N=S2(=O)CCCC2)cc2ncnc(Nc3cccnc3O[C@@H]3CNC[C@H]3O)c12` [Example 3.1]: 29 nM.
Consider `Cc1cc(N=S(C)(C)=O)cc2ncnc(Nc3cccnc3O[C@@H]3CNC[C@H]3O)c12` [Example 3.2], for which the IC50 stood at 47 nM.
For the compound `Cc1cc(N=S2(=O)CCCC2)cc2ncnc(Nc3cccnc3O[C@H]3CNC[C@@H]3O)c12` [Example 3.3], the IC50 was 26 nM.
The same measure, in the same setting: to `Cc1cc(N=S(C)(C)=O)cc2ncnc(Nc3ccc(F)cc3O[C@@H]3CNC[C@H]3O)c12` [Example 3.4] belongs 21 nM; to `Cc1cc(N=S2(=O)CCCC2)cc2ncnc(Nc3ccc(F)cc3O[C@@H]3CNC[C@H]3O)c12` [Example 3.5], 6 nM.
Still for that read-out and setting: to `Cc1cc(N=S(C)(C)=O)cc2ncnc(Nc3ccc(F)cc3O[C@H]3CNC[C@@H]3O)c12` [Example 3.7] belongs 38 nM; to `CO[C@@H]1CNC[C@H]1Oc1cc(F)ccc1Nc1ncnc2cc(N=S(C)(C)=O)cc(C)c12` [Example 4.1], 45 nM.
Still for that read-out and setting: to `CO[C@@H]1CNC[C@H]1Oc1cc(F)ccc1Nc1ncnc2cc(N=S3(=O)CCCC3)cc(C)c12` [Example 4.2] belongs 8 nM; to `CCN1C[C@@H](OC)[C@H](Oc2cc(F)ccc2Nc2ncnc3cc(N=S4(=O)CCCC4)cc(C)c23)C1` [Example 4.3], 40 nM.
For the compound `CO[C@@H]1CNC[C@H]1Oc1ncccc1Nc1ncnc2cc(N=S3(=O)CCCC3)cc(C)c12` [Example 4.4], the IC50 worked out at 11 nM.
Still for that read-out and setting: to `CO[C@@H]1CNC[C@H]1Oc1ncccc1Nc1ncnc2cc(N=S(C)(C)=O)cc(C)c12` [Example 4.5] belongs 33 nM; to `CO[C@@H]1CN(CC(F)F)C[C@H]1Oc1cc(F)ccc1Nc1ncnc2cc(N=S3(=O)CCCC3)cc(C)c12` [Example 5.1], 16 nM; to `CO[C@@H]1CN(CC(F)F)C[C@H]1Oc1ncccc1Nc1ncnc2cc(N=S(C)(C)=O)cc(C)c12` [Example 5.2], 72 nM.
Still for that read-out and setting: to `CO[C@@H]1CN(CCF)C[C@H]1Oc1ncccc1Nc1ncnc2cc(N=S(C)(C)=O)cc(C)c12` [Example 5.3] belongs 109 nM.
In the case of `CO[C@@H]1CN(CC(F)F)C[C@H]1Oc1cc(F)ccc1Nc1ncnc2cc(N=S(C)(C)=O)cc(C)c12` [Example 5.4], the IC50 came to 44 nM.
For `CO[C@@H]1CN(CC(F)F)C[C@H]1Oc1ncccc1Nc1ncnc2cc(N=S3(=O)CCCC3)cc(C)c12` [Example 5.5], the IC50 was determined as 13 nM.
`CO[C@@H]1CN(C(C)=O)C[C@H]1Oc1cc(F)ccc1Nc1ncnc2cc(N=S(C)(C)=O)cc(C)c12` [Example 6.1]: the IC50 turned out to be 389 nM.

(Values after patent publication US10093660B2, “Sulfoximine substituted quinazolines for pharmaceutical compositions” (EVOTEC INTERNATIONAL GMBH, priority 2013, dated 2018).)
